Source: patent publication US20170273985A1, “TRICYCLIC DERIVATIVE” (Sunovion Pharmaceuticals Inc., priority 2014, published 2017)

Target: PDE1B (Homo sapiens, UniProt Q01064)
Experiment: In vitro HTRF PDE1 inhibition assay (PDE1B)
Format: biochemical
Settings: Table 22
Text: An exemplary procedure for the in vitro Homogenous Time Resolved Fluorescence assay, which can be used to determine the inhibitory action of compounds of the invention toward PDE1 or its isoforms, follows. The HTRF PDE1 assay utilized the HTRF (Homogenous Time Resolved Fluorescence) technology, which is based on the competition between unlabeled cyclic nucleotide and cyclic nucleotide labeled with XL665 for the binding to cyclic nucleotide-specific antibody labeled with cryptate. The HTRF signal is thus inversely proportional to the concentration of cyclic nucleotide being measured. Since phosphodiesterases break down cyclic nucleotides the HTRF signal was used to determine PDE activity. The Cisbio cGMP HTRF assay kit (Cat no: 62GM2PEC) was utilized. Cyclic GMP was diluted to 200 nM in HTRF assay buffer (1 mM CaCl2, 10 mM MgCl2, 10 mM Tris-HCl, 0.1% BSA, pH 7.4). 10 μl of compound or DMSO was diluted in 200 nM cyclic GMP solution and added to wells of a 96 well white plate to give 100 nM cyclic GMP in 1% DMSO final concentration. PDE (1A3, 1B or IC) was diluted to 2× working concentration in HTRF assay buffer with 2 μg/ml calmodulin, and 10 μl was added to initiate the reaction. The plate was then incubated for 45 minutes at 37° C. d2-Labelled cyclic GMP and anti-cGMP cryptate were diluted in 50 mM phosphate buffer, 0.8 M KF, 1% Triton X100, 0.2% BSA, pH 7.0. Following incubation 10 μl d2-cGMP, then 10 μl anti cGMP cryptate were added to each well and the plate was incubated for 45 minutes at room temperature. The plate was then read on Perkin Elmer Victor at 2 different FRET readings ex/emm 340 nm/665 nm and 340 nm/615 nm. Compounds having an IC50 of <1 μM, are denoted as +++. Compounds having an IC50 of 1−10 μM, are denoted as ++. Compounds having an IC50 of 10-100 μM, are denoted as +.

CCCN1c2nn3c(C4CCOCC4)ncc3c(=O)n2C[C@@H]1c1ccc(CC)nc1 [Example 90]
IC50: < 1 µM

CCCN1c2nn3c(C4CCOCC4)ncc3c(=O)n2C[C@H]1c1ccc(CC)nc1 [Example 91]
IC50: 1 to 10 µM

CCc1ccc([C@H]2Cn3c(nn4c(C5CCOCC5)ncc4c3=O)N2CC(C)C)cn1 [Example 92]
IC50: 1 to 10 µM

CCc1ccc([C@@H]2Cn3c(nn4c(C5CCOCC5)ncc4c3=O)N2CC(C)C)cn1 [Example 93]
IC50: 10 to 100 µM

CCc1ccc(C2Cn3c(nn4c(C(C)C)ncc4c3=O)N2CC)cn1 (centres unmarked) [Example 95]
IC50: 1 to 10 µM

CCCN1c2nn3c(C(C)C)ncc3c(=O)n2C[C@@H]1c1ccc(CC)nc1 [Example 96]
IC50: 1 to 10 µM

CCCN1c2nn3c(C(C)C)ncc3c(=O)n2CC1c1ccc(CC)nc1 (centres unmarked) [Example 97]
IC50: 1 to 10 µM

CCc1ccc(C2Cn3c(nn4c(C(C)C)ncc4c3=O)N2CC(C)C)cn1 (centres unmarked) [Example 98]
IC50: 1 to 10 µM

CCc1ccc(C2Cn3c(nn4c(C(C)C)ncc4c3=O)N2CC(C)C)cn1 (centres unmarked) [Example 99]
IC50: 1 to 10 µM

CC(C)c1ncc2c(=O)n3c(nn12)N(CCCCO)CC3 [Example 100, 1-(4-Hydroxybutyl)-8-isopropyl-2,3-dihydro-1H,5H-diimidazo[2,1-c:5′,1′-f][1,2,4]triazin-5-one]
IC50: < 1 µM

CC(C)c1ncc2c(=O)n3c(nn12)N(CCCCCO)CCC3 [Example 101, 1-(5-Hydroxypentyl)-9-isopropyl-1,2,3,4-tetrahydro-6H-imidazo[5,1-f]pyrimido[2,1-c][1,2,4]triazin-6-one]
IC50: < 1 µM

CC(C)c1ncc2c(=O)n3c(nn12)N(CCCCCO)CC3 [Example 102]
IC50: < 1 µM

CC(C)c1ncc2c(=O)n3c(nn12)N(CCCCCCO)CC3 [Example 103]
IC50: < 1 µM

CC(C)c1ncc2c(=O)n3c(nn12)N(CCOCCO)CC3 [Example 104]
IC50: < 1 µM

CC(C)c1ncc2c(=O)n3c(nn12)N(CCCCO)CCC3 [Example 105]
IC50: < 1 µM

CC(C)c1ncc2c(=O)n3c(nn12)N(CCOCCO)CCC3 [Example 107]
IC50: 1 to 10 µM

O=c1c2cnc(C3CCOCC3)n2nc2n1CCN2CCCCCO [Example 108]
IC50: < 1 µM

O=c1c2cnc(C3CCOCC3)n2nc2n1CCCN2CCCCCO [Example 109]
IC50: < 1 µM

CC(C)c1ncc2c(=O)n3c(nn12)N(CCCC(O)CO)CC3 (centres unmarked) [Example 110, 1-(4,5-Dihydroxypentyl)-8-isopropyl-2,3-dihydro-1H,5H-diimidazo[2,1-c:5′,1′-f][1,2,4]triazin-5-one]
IC50: < 1 µM

CC(C)c1ncc2c(=O)n3c(nn12)N(CCCC(O)CO)CCC3 (centres unmarked) [Example 111, 1-(4,5-Dihydroxypentyl)-9-isopropyl-1,2,3,4-tetrahydro-6H-imidazo[51-f]pyrimido[2,1-c][1,2,4]triazin-6-one]
IC50: < 1 µM

CC(C)c1ncc2c(=O)n3c(nn12)N(CC1CCN(C)CC1)CCC3 [Example 112, 9-Isopropyl-1-[(1-methyl-4-piperidinyl)methyl]-1,2,3,4-tetrahydro-6H-imidazo[5,1-f]pyrimido[2,1-c][1,2,4]triazin-6-one]
IC50: 1 to 10 µM

CC(C)c1ncc2c(=O)n3c(nn12)N(CCC1CCNCC1)CCC3 [Example 113, 9-Isopropyl-1-[2-(4-piperidinyl)ethyl]-1,2,3,4-tetrahydro-6H-imidazo[5,1-f]pyrimido[2,1-c][1,2,4]triazin-6-one]
IC50: 1 to 10 µM

CC(C)c1ncc2c(=O)n3c(nn12)N(CCC1CCN(C)CC1)CCC3 [Example 114, 9-Isopropyl-1-[2-(1-methyl-4-piperidinyl)ethyl]-1,2,3,4-tetrahydro-6H-imidazo[5,1-f]pyrimido[2,1-c][1,2,4]triazin-6-one]
IC50: < 1 µM

CC(C)c1ncc2c(=O)n3c(nn12)N(CCc1cccc(C#N)c1)CCC3 [Example 115, 3-(2-(9-Isopropyl-6-oxo-2,3,4,6-tetrahydro-1H-imidazo[1,5-f]pyrimido[2,1-c][1,2,4]triazin-1-yl)ethyl)benzonitrile]
IC50: < 1 µM

N#Cc1ccc(CCN2CCCn3c2nn2c(C4CCOCC4)ncc2c3=O)cc1 [Example 116, 4-{2-[6-Oxo-9-(tetrahydro-2H-pyran-4-yl)-3,4-dihydro-6H-imidazo[5,1-f]pyrimido[2,1-c][1,2,4]triazin-1(2H)-yl]ethyl}benzonitrile]
IC50: < 1 µM

N#Cc1cccc(CCN2CCCn3c2nn2c(C4CCOCC4)ncc2c3=O)c1 [Example 117]
IC50: 10 to 100 µM

N#Cc1cccc(CCCN2CCCn3c2nn2c(C4CCOCC4)ncc2c3=O)c1 [Example 118]
IC50: < 1 µM

N#Cc1ccc(CCCN2CCCn3c2nn2c(C4CCOCC4)ncc2c3=O)cc1 [Example 119]
IC50: < 1 µM

CC1CN(CCCc2ccccn2)c2nn3c(C(C)C)ncc3c(=O)n2C1 (centres unmarked) [Example 121]
IC50: < 1 µM

CC(C)c1ncc2c(=O)n3c(nn12)N(CCCc1cccc(F)c1)CCC3 [Example 122]
IC50: < 1 µM

CC(C)c1ncc2c(=O)n3c(nn12)N(C(=O)CC1CCOCC1)CCC3 [Example 123, 9-Isopropyl-1-(tetrahydro-2H-pyran-4-ylacetyl)-1,2,3,4-tetrahydro-6H-imidazo[5,1-f]pyrimido[2,1-c][1,2,4]triazin-6-one]
IC50: 1 to 10 µM

CC(C)c1ncc2c(=O)n3c(nn12)N(C(=O)CCC1CCOCC1)CCC3 [Example 124, 9-Isopropyl-1-(3-(tetrahydro-2H-pyran-4-yl)propanoyl)-3,4-dihydro-1H-imidazo[1,5-f]pyrimido[2,1-c][1,2,4]triazin-6(2H)-one]
IC50: 10 to 100 µM

CC(C)c1ncc2c(=O)n3c(nn12)N(C(=O)CCN1CCOCC1)CCC3 [Example 125, 9-Isopropyl-1-(3-morpholinopropanoyl)-3,4-dihydro-1H-imidazo[1,5-f]pyrimido[2,1-c][1,2,4]triazin-6(2H)-one]
IC50: 1 to 10 µM

CC(C)c1ncc2c(=O)n3c(nn12)OC(c1ccccc1)CC3 (centres unmarked) [Example 126, 9-Isopropyl-2-phenyl-3,4-dihydroimidazo[5,1-f][1,3]oxazino[2,3-c][1,2,4]triazin-6(2H)-one]
IC50: < 1 µM

CC(C)c1ncc2c(=O)n3c(nn12)OC(c1ccc(Cl)cc1)CC3 (centres unmarked) [Example 127]
IC50: < 1 µM

COc1cccc(C2CCn3c(nn4c(C(C)C)ncc4c3=O)O2)c1 (centres unmarked) [Example 128]
IC50: 1 to 10 µM

COc1ccc(C2CCn3c(nn4c(C(C)C)ncc4c3=O)O2)cc1 (centres unmarked) [Example 129]
IC50: < 1 µM

CC(C)c1ncc2c(=O)n3c(nn12)OC(Cc1ccccc1)CC3 (centres unmarked) [Example 130]
IC50: < 1 µM

COc1ccc(CC2CCn3c(nn4c(C(C)C)ncc4c3=O)O2)cc1 (centres unmarked) [Example 131]
IC50: < 1 µM

CC(C)c1ncc2c(=O)n3c(nn12)OC(Cc1ccc(Cl)cc1)CC3 (centres unmarked) [Example 132]
IC50: < 1 µM

O=c1c2cnc(C3CCCC3)n2nc2n1CCC(c1ccccc1)C2 (centres unmarked) [Example 134, 3-Cyclopentyl-7-phenyl-8,9-dihydro-6H-imidazo[5,1-f]pyrido[2,1-c][1,2,4]triazin-11(7H)-one]
IC50: 1 to 10 µM

COc1cccc(C2CCn3c(nn4c(C5CCCC5)ncc4c3=O)C2)c1 (centres unmarked) [Example 135]
IC50: 1 to 10 µM

COc1ccc(C2CCn3c(nn4c(C5CCCC5)ncc4c3=O)C2)cc1 (centres unmarked) [Example 136]
IC50: 1 to 10 µM

O=c1c2cnc(C3CCOCC3)n2nc2n1CC(c1ccc(Cl)cc1)C2 (centres unmarked) [Example 138, 7-(4-Chlorophenyl)-3-(tetrahydro-2H-pyran-4-yl)-7,8-dihydro-6H,10H-imidazo[5,1-f]pyrrolo[2,1-c][1,2,4]triazin-10-one]
IC50: 1 to 10 µM
